Source: BigSolDB 2.1

CCCCc1nc(Cl)c(C(=O)OCOC(=O)OC(C)C)n1Cc1ccc(-c2ccccc2-c2nn[nH]n2)cc1
solubility (mole fraction)
Conditions	278.15 K	283.15 K	288.15 K	293.15 K	298.15 K	303.15 K	308.15 K	313.15 K
in acetone	0.00987	0.0112	0.0132	0.0155	0.019	0.0234	0.0299	0.0364
in acetonitrile	0.00131	0.00154	0.00195	0.00247	0.00326	0.00445	0.00597	0.00816
in methanol	0.00111	0.00128	0.00156	0.00209	0.00277	0.00361	0.00508	0.00772
